Test [1] concerns the target Glyceraldehyde-3-phosphate dehydrogenase (Homo sapiens, UniProt P04406).
The target of test [2] is Alkaline phosphatase, placental type (Homo sapiens, UniProt P05187). In words: PLAP enzyme inhibitors, confirmation, biochemical, luminescence (AID 1512). The test is classed as functional.
Test [3] addresses T1, Alkaline phosphatase, tissue-nonspecific isozyme (Homo sapiens, UniProt P05186).
T1 sequence (P05186 whole entry): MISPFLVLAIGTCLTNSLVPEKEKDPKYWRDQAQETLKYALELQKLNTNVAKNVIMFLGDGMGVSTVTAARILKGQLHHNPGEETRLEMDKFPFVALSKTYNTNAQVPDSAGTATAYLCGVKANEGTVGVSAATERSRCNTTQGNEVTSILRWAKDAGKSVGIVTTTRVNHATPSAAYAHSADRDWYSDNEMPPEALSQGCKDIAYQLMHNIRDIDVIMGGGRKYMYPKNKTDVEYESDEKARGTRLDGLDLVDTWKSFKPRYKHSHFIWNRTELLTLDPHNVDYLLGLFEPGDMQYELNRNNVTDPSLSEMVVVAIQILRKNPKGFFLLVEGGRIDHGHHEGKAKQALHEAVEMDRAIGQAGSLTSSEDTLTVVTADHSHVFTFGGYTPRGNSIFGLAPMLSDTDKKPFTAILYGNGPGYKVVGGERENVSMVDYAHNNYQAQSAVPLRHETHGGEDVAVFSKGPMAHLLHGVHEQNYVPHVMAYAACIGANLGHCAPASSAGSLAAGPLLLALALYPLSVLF
In words: human TNAP enzyme inhibitors, SAR follow-up, biochemical, luminescent, dose response (AID 1056).

The nature of test [4]: inhibitors of intracellular T. cruzi replication, confirmation, NIH3T3 host cells, beta-gal luminescence (AID 2044).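 Further: intracellular parasites grown in NIH/3T3 mouse fibroblasts as host cells; luminescent beta-galactosidase reporter signal from transgenic T. cruzi replicating inside host cells; inhibitors lower the luminescence signal.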 It counts as functional, cell-based.
Test [5] can be described thus: cytotoxicity toward NIH3T3 fibroblasts, dose response, counter-screen, cell-based, ATP luminescence, mouse fibroblasts (AID 2010).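 Further: cells exposed to compound for about 90 hours before reading.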 The test is classed as functional. In general terms: Counterscreens check selectivity or assay interference.
Test [6] can be described thus: cytotoxicity in NIH/3T3 mouse fibroblasts, dose response, cytotoxicity control, cell-based, mouse embryonic fibroblasts, dry powder, set 2 (AID 493247). It counts as functional. The conditions noted are these: Fibroblast.
The target of test [7] is T2, Dual specificity protein phosphatase 3 (Homo sapiens, UniProt P51452). Nature of the test: SAR VHR1 absorbance Assay for In Vitro dose response studies. [Related pubchem assays (depositor defined):AID1654, AID1661, AID1878, AID1992, AID2004].
The target in test [8] is T2, Dual specificity protein phosphatase 3. In words: SAR VHR1 Fluorescent Assay for In Vitro dose response studies. [Related pubchem assays (depositor defined):AID1654, AID1661, AID1878, AID1992, AID2004, AID2070, AID2085]. The test is classed as functional.
In test [9] the target is T3, Tyrosine-protein phosphatase non-receptor type 7 (Homo sapiens, UniProt P35236).
T3 sequence (P35236 whole entry): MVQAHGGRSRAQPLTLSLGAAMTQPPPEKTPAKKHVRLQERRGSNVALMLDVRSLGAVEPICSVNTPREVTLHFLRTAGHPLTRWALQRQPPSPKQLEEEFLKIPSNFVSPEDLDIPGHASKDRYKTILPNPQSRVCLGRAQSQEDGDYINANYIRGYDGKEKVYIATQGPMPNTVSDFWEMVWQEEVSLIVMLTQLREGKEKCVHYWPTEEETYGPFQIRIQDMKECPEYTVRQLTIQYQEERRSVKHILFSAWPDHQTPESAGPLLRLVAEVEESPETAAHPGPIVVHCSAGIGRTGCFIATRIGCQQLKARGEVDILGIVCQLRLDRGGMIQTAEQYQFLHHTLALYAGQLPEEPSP
In words: redox-dependent HePTP inhibition, mechanism study, biochemical, fluorescence (AID 2068). It counts as functional.

Test [10] concerns the target T4, Dual specificity protein phosphatase 6 (Rattus norvegicus, UniProt Q64346).
T4 sequence (Q64346 whole entry): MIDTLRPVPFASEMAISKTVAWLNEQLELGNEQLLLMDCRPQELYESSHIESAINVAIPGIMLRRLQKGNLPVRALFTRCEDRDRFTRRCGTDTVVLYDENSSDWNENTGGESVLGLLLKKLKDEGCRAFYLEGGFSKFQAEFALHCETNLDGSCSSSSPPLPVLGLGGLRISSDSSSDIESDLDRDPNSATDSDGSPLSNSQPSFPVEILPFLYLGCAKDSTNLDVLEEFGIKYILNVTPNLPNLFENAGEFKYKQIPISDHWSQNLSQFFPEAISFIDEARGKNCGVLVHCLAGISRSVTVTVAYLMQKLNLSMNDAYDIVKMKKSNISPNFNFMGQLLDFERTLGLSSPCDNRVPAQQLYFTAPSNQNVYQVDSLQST
Nature of the test: SAR analysis of inhibitors of MKP-3 - Set 2. [Related pubchem assays (depositor defined):AID1055, AID1661, AID425, AID553, AID566]. It counts as functional.

For test [11], the target named is T3, Tyrosine-protein phosphatase non-receptor type 7. Nature of the test: HePTP (PTPN7) phosphatase inhibitor potency, SAR follow-up, biochemical, set 2 (AID 449736). The test is classed as functional.
Test [12] has the same target. In words: SAR analysis of chemical inhibitors of HePTP using a Fluorescent assay - Set 2. [Related pubchem assays (depositor defined):AID1059, AID1077, AID1661, AID2085, AID521]. The test is classed as functional.
Test [13] concerns the target T2, Dual specificity protein phosphatase 3. Nature of the test: SAR VHR1 Fluorescent Assay for In Vitro dose response studies Set 2. [Related pubchem assays (depositor defined):AID1654, AID1661, AID1878]. The test is classed as functional.
Test [14] deals with T4, Dual specificity protein phosphatase 6. The test is classed as functional.
Test [15] deals with Tyrosine-protein phosphatase non-receptor type 12 (Homo sapiens, UniProt Q05209). Nature of the test: SAR Selectivity Analysis of small molecule inhibitors of PEST using pCAP in a fluorescence assay. [Related pubchem assays (depositor defined):AID1779, AID1784, AID2135]. It counts as functional.
For test [16], the target named is T5, Tyrosine-protein phosphatase non-receptor type 22 (Homo sapiens, UniProt Q9Y2R2). In words: SAR LYP1 Fluorescent Assay using OMFP substrate for In Vitro dose response studies - Set 3. [Related pubchem assays (depositor defined):AID1779, AID1784, AID2140, AID2686]. It counts as functional.
For test [17], the target named is T5, Tyrosine-protein phosphatase non-receptor type 22. In words: LYP (PTPN22) phosphatase inhibitor potency, SAR follow-up, biochemical, pCAP fluorogenic substrate, fluorescence, set 3 (AID 449727). The test is classed as functional.
Test [18] concerns Vero. Nature of the test: cytotoxicity of synthesized analogs in Vero 76, SAR follow-up, cytotoxicity control for West Nile virus antiviral project, Vero 76 cells (AID 2414). The test is classed as functional. The note with it: Chlorocebus sabaeus.
For test [19], the system named is Vero. In words: cytotoxicity of synthesized analogs in Vero cells, SAR follow-up, cytotoxicity control for West Nile virus antiviral project, cell-based, set II (AID 2402). It counts as functional. The conditions noted are these: Chlorocebus sabaeus.
The test system of test [20] is Vero. In words: Vero E6 cell cytotoxicity, SAR follow-up, cytotoxicity control for West Nile virus antiviral project, synthesized analogs (AID 2244). The test is classed as functional. The conditions noted are these: Chlorocebus sabaeus.
A short description of test [21]: A Cell Based Assay for the Identification of Probe candidate Compounds with Anti- Venezuelan Equine Encephalitis virus. [Related pubchem assays: 2409, 2419, 1621, 2238, 2405, 2024, 2065, 2402, 2414, 1635, 1650, 2244 ]. It counts as functional.
In test [22] the test system is Vero. In words: West Nile virus CPE inhibition, SAR follow-up, cell-based, synthesized analogs (AID 2238). The test is classed as functional. The conditions noted are these: Chlorocebus sabaeus.
For test [23], the system named is Vero. In words: West Nile virus cytopathic effect inhibition, cell-based (AID 2419). It counts as functional. The conditions noted are these: Chlorocebus sabaeus. A general note: Cytopathic effects are the visible damage that an infection or toxin causes in cultured cells.
The target of another test is Coagulation factor XII (Homo sapiens, UniProt P00748). In words: FXIIa inhibitor potency, concentration-response, biochemical (AID 716). It counts as functional.
Test [24] has as its target G-protein coupled receptor 55 (Homo sapiens, UniProt Q9Y2T6). Nature of the test: GPR55 agonists via beta-arrestin recruitment, primary screen, imaging, U2OS cells, beta-arrestin-GFP redistribution (AID 1961). It counts as functional.
For a further test, the target named is CAAX prenyl protease 2 (Saccharomyces cerevisiae S288c, UniProt Q03530). It counts as biochemical.
A further test deals with Tumor necrosis factor (Homo sapiens, UniProt P01375). Nature of the test: TNFa-triggered NF-kB activation inhibitors, SAR follow-up, cell-based, revised (AID 2337). It counts as functional.
Test [25] addresses Nucleotide-binding oligomerization domain-containing protein 1 (Homo sapiens, UniProt Q9Y239). Nature of the test: NOD1 signaling inhibitors, SAR follow-up, revised (AID 2333). It counts as functional.
Test [26] concerns the target Nucleotide-binding oligomerization domain-containing protein 2 (Homo sapiens, UniProt Q9HC29). In words: PubChem AID 2334. It counts as functional.
The next test concerns HEK293. Nature of the test: cells. The note with it: Homo sapiens.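 Further: cells exposed to compound for 14 hours overnight before viability readout.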

The source made the active and inactive calls. For most assays here, no stated cut-off is given here; in the data, actives have a measured IC50 and inactives only a lower limit. Some results are limits rather than exact numbers.

T2 sequence (P51452 whole entry): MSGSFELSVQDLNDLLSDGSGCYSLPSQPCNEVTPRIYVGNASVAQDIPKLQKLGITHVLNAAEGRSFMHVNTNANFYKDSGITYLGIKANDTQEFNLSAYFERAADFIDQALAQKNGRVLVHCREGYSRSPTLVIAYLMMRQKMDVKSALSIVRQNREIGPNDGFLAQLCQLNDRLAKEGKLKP
T5 sequence (Q9Y2R2 whole entry): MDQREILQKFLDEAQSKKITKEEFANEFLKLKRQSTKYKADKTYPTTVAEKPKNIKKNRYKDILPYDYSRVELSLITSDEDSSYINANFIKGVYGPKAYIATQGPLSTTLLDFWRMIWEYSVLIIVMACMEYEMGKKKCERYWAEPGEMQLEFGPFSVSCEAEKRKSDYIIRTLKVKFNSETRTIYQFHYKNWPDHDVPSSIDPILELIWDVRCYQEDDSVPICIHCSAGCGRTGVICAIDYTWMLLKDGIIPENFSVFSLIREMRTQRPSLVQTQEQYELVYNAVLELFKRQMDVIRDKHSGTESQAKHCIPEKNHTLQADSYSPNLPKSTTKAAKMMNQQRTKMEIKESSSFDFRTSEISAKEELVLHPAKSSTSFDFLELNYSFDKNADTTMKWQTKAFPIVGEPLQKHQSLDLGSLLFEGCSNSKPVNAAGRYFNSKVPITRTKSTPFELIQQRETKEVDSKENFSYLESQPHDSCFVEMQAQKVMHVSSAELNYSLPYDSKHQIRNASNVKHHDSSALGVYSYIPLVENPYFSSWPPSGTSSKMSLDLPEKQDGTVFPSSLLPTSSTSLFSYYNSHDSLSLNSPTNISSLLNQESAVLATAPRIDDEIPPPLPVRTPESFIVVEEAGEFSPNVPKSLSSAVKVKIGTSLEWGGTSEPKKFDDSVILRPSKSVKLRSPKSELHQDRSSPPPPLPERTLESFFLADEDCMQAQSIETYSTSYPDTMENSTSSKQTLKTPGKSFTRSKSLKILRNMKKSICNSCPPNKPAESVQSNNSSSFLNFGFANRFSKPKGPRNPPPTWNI
Chain of Alkaline phosphatase, placental type (P05187 whole entry): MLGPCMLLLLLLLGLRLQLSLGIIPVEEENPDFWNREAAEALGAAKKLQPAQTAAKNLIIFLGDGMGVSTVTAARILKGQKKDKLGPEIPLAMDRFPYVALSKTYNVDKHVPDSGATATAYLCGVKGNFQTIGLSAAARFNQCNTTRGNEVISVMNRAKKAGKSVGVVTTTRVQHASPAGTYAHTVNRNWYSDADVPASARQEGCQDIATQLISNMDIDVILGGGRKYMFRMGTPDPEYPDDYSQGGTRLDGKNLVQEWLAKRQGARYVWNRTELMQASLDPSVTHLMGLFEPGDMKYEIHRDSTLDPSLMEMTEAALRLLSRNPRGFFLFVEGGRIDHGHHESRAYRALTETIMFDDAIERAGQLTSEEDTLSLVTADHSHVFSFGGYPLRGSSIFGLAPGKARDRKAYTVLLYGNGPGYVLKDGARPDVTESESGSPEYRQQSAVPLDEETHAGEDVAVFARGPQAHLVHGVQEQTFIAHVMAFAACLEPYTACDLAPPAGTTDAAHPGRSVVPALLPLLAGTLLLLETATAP
Chain of G-protein coupled receptor 55 (Q9Y2T6 whole entry): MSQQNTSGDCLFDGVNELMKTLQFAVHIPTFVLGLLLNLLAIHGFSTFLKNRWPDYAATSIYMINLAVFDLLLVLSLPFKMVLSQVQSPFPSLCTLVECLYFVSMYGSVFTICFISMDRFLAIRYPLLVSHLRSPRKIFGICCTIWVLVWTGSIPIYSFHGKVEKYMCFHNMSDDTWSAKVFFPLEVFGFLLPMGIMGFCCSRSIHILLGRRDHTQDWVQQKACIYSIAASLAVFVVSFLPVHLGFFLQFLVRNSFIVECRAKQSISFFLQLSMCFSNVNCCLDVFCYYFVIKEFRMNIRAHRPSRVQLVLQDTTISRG
Chain of Nucleotide-binding oligomerization domain-containing protein 2 (Q9HC29 whole entry, the tested form may be a part): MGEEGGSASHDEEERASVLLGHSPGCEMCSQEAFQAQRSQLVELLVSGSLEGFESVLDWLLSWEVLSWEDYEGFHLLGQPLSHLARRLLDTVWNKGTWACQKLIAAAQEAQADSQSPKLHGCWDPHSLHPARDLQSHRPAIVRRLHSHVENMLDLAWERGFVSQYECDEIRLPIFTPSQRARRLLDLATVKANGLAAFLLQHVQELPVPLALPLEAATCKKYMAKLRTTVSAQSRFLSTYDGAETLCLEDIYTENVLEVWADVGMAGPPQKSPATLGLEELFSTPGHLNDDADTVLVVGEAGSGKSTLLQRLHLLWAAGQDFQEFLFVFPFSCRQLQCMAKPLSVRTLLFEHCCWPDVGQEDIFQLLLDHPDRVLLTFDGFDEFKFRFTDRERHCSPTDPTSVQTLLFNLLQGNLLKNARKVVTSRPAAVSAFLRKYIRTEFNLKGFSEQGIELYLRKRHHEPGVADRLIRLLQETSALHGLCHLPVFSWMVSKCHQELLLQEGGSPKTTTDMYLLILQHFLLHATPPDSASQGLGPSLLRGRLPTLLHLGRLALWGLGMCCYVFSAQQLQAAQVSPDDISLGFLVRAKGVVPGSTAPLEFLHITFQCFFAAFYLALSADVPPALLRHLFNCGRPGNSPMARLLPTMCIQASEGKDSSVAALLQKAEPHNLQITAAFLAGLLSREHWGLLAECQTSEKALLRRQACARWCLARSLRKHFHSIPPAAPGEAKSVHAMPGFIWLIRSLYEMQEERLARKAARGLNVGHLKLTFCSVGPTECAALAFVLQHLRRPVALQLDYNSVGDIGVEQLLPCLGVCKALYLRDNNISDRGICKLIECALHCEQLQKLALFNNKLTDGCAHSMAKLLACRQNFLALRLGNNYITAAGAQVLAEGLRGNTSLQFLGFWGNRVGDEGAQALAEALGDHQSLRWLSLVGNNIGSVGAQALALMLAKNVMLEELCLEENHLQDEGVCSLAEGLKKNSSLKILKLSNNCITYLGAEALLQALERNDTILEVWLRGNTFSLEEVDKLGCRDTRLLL
Chain of Coagulation factor XII (P00748 20-372 limits assumed): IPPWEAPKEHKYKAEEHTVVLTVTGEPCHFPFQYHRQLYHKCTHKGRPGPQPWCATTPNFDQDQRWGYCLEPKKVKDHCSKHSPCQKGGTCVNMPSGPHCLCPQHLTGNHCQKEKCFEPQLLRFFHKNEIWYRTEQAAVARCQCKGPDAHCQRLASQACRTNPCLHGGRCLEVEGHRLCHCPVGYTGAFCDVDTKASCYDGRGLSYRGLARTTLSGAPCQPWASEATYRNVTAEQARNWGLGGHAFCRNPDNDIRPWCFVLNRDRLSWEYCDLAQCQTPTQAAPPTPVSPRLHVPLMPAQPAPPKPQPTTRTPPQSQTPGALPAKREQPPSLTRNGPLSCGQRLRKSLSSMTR
Chain of Coagulation factor XII (P00748 373-615 limits assumed): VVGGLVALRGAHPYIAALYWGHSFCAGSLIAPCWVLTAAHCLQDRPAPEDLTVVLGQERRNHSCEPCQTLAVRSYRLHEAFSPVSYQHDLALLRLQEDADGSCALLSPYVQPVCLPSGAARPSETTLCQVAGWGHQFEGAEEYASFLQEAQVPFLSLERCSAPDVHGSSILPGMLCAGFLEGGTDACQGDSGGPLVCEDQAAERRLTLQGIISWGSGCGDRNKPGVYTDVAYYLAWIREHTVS
Chain of CAAX prenyl protease 2 (Q03530 whole entry): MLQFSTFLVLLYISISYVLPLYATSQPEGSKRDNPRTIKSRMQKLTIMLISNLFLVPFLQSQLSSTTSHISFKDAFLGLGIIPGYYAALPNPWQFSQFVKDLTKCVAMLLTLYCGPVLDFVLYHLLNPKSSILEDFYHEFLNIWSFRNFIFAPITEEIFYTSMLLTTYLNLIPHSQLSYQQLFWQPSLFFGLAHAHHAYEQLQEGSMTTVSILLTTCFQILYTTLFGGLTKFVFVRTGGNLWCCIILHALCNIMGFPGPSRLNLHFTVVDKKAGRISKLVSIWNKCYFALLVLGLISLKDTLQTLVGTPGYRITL
Chain of Glyceraldehyde-3-phosphate dehydrogenase (P04406 whole entry): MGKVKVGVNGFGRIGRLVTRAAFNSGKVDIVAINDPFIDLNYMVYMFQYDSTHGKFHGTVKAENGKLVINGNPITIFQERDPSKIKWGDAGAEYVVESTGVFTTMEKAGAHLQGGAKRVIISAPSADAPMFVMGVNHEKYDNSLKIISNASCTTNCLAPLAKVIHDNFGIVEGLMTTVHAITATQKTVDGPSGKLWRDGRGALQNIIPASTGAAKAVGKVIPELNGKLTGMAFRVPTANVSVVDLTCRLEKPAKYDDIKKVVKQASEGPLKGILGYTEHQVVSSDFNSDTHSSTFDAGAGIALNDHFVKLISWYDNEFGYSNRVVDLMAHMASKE
Chain of Tumor necrosis factor (P01375 whole entry, the tested form may be a part): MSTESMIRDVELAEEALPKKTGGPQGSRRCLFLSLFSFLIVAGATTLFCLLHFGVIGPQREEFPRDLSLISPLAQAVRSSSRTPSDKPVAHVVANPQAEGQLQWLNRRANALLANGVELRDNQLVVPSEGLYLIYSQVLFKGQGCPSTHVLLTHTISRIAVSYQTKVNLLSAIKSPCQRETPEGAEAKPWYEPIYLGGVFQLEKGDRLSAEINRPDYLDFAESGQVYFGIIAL

`O=C(O)c1cc(-c2ccccc2Cl)n[nH]1`: the concentration for half-maximal inhibition (IC50) in [1] was > 100 µM (not active); in test [2] it was > 100 µM (inactive); in test [3], 0.584 µM (active).

`CCCCCC(=O)N/N=C/c1ccc([N+](=O)[O-])o1`: the EC50 was 0.183 µM (active) in test [4] and > 60 µM (not active) in test [5]. The AC50 in test [6] is 26.6 µM (active).

Regarding `NS(=O)(=O)c1ccc(NC(=S)NC2CC2)cc1`, the half-maximal inhibitory concentration (IC50) is 12.5 µM (active) in [7]; > 99 µM (inactive) in test [8]; 0.588 µM (active) in test [9]; > 100 µM (inactive) in [10]; > 100 µM (inactive) in test [11]; 27.9 µM (active) in [12]. The IC50 is 5.38 µM (active) in test [13] and > 99 µM (inactive) in [14].

For the compound `CCc1ccc(/N=C2/NC(=O)/C(=C/c3ccc(OCC(=O)O)c(Cl)c3)S2)cc1`, the IC50 was 7.69 µM (active) in [15]; 21.7 µM (active) in test [16]; 2.89 µM (active) in test [9]; 2.71 µM (active) in test [11]; 11.2 µM (active) in test [17]; 4.83 µM (active) in [13]. Also, in test [14], the IC50 was 65.7 µM (active).

For `OC1c2cc(Br)ccc2N=C2CCCN21` (stereo unspecified), the half-maximal cytotoxic concentration (CC50) in the test with Vero [18] is 71.5 µM (active); in the test on Vero [19], 35.5 µM (active); in the test on Vero [20] it was > 80 µM (active). The IC50 was 14.5 µM (active) in [21], 25.7 µM (active) with Vero [22] and > 25 µM (active) in the test on Vero [23]. Besides, the concentration giving a half-maximal response (EC50) was 3.78 µM (active) in [4] and > 60 µM (not active) in test [5].

For `CN(CC(=O)Nc1cccnc1)S(=O)(=O)c1cc(Cl)ccc1Cl`, the IC50 on Coagulation factor XII is > 50 µM (inactive).

Regarding `CC(C)C[C@@H](CSc1ccc(Br)cc1)N1CCN(CC(C)C)CCC1=O`, the EC50 in test [24] is 15.3 µM (inactive).

For the compound `CCn1cc(/C=C(\NC(=O)c2ccccc2F)C(=O)N2CCCC2)c2ccccc21`, the AC50 on CAAX prenyl protease 2 was 3.91 µM (active).

Consider `COc1ccc(-c2cc(C(=O)NC3CCCc4c3cnn4-c3ccccc3F)n(C)n2)cc1` (stereo unspecified), for which the IC50 at Tumor necrosis factor was 1.36 µM (active); in test [25], 0.99 µM (active); in [26], 1.34 µM (active); with HEK293, > 20 µM (inactive).

As a reminder, the IC50 is the concentration that inhibits the measured activity by half. One may read the EC50 as the concentration needed to bring the measured effect to its halfway point. One may read the AC50 as the concentration at which the activity in the assay is half-maximal. As a reminder, the CC50 is the concentration giving 50% cytotoxicity.

For the origin of these results see ChEMBL document CHEMBL1201862, “PubChem BioAssay data set” (2004).
